Data on one compound can be found in ChEMBL document CHEMBL6087433, “Discovery of ART0380, a Potent and Selective ATR Kinase Inhibitor Undergoing Phase 2 Clinical Studies for the Treatment of Advanced or Metastatic Solid Cancers” (J Med Chem, 2024).

The target in series [1] is Phosphatidylinositol 4,5-bisphosphate 3-kinase catalytic subunit beta isoform (Homo sapiens, UniProt P42338).
Description: Inhibition of PI3Kbeta (unknown origin) by ADP-Glo assay
The next series deals with T1, Cytochrome P450 2B6 (Homo sapiens, UniProt P20813).
T1 sequence (P20813 whole entry): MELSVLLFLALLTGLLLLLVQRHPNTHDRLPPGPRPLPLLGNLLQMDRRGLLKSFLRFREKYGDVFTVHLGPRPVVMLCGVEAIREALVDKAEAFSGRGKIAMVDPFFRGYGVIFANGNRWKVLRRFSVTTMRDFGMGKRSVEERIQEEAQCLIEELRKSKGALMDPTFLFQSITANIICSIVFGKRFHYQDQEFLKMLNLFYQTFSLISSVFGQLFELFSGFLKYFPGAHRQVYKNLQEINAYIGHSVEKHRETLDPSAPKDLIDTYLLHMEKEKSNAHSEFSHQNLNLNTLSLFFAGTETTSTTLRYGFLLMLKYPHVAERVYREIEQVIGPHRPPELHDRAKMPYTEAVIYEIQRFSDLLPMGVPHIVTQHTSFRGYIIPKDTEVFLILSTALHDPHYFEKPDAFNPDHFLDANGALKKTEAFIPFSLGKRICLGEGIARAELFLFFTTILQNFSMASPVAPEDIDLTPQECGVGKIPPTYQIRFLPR

For series [2], the target named is Phosphatidylinositol 4,5-bisphosphate 3-kinase catalytic subunit alpha isoform (Homo sapiens, UniProt P42336).
Phosphatidylinositol 4,5-bisphosphate 3-kinase catalytic subunit alpha isoform, sequence (P42336 whole entry, canonical isoform): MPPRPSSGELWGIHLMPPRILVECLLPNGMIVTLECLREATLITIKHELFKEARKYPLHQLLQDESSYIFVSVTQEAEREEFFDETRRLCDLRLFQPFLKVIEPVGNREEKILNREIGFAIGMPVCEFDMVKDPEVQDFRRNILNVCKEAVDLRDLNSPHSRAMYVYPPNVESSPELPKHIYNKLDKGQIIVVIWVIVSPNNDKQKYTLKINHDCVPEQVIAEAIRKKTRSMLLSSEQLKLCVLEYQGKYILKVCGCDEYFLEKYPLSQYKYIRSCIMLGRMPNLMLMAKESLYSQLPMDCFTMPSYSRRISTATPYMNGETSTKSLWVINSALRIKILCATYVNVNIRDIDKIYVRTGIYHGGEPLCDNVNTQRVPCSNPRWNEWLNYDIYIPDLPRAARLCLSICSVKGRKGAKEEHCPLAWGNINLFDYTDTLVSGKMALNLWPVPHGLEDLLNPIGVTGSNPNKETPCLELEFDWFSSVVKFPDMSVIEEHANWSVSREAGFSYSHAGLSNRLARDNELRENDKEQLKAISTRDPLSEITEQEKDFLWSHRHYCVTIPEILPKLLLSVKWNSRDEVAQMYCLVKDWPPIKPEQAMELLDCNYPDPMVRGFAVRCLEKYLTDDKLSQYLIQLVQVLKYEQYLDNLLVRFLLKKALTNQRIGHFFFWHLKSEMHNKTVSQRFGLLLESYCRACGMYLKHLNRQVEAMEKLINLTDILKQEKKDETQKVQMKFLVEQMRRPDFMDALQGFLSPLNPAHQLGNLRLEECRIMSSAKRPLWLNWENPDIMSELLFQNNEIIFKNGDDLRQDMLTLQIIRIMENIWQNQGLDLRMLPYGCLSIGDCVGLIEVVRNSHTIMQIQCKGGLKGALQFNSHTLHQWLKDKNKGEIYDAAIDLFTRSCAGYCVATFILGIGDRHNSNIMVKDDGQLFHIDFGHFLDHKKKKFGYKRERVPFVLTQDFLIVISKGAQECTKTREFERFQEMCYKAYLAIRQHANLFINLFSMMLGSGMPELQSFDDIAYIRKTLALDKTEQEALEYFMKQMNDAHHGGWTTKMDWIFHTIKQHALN
Description: Inhibition of PI3Kalpha (unknown origin) by ADP-Glo assay
The nature of series [3]: in vivo. Particulars: Sprague-Dawley, rat, po, 10 mg/kg.
The nature of series [4]: physchem. Particulars: aqueous buffer, pH 7.4.
Description: Thermodynamic solubility of the compound in aqueous buffer at pH 7.4
Series [5] is described as follows: in vivo. Particulars: CD-1, mouse, po, 30 mg/kg.
The subject of a further series is NCI-H23. Nature of the series: cells. Particulars: Homo sapiens.
The nature of series [6]: in vivo. The note with it: Sprague-Dawley, rat, iv, 1 mg/kg.
Description: Half life in Sprague-Dawley rat at 1 mg/kg, iv
Series [7] can be described thus: in vivo. The note with it: CD-1, mouse, po, 10 mg/kg.
The species named for another series is Mus musculus. Particulars: CD-1, dose 30-50 mg/kg, route po, time 4.0 hrs.
In series [8] the target is Phosphatidylinositol 3-kinase catalytic subunit type 3 (Homo sapiens, UniProt Q8NEB9).
Phosphatidylinositol 3-kinase catalytic subunit type 3, sequence (Q8NEB9 whole entry): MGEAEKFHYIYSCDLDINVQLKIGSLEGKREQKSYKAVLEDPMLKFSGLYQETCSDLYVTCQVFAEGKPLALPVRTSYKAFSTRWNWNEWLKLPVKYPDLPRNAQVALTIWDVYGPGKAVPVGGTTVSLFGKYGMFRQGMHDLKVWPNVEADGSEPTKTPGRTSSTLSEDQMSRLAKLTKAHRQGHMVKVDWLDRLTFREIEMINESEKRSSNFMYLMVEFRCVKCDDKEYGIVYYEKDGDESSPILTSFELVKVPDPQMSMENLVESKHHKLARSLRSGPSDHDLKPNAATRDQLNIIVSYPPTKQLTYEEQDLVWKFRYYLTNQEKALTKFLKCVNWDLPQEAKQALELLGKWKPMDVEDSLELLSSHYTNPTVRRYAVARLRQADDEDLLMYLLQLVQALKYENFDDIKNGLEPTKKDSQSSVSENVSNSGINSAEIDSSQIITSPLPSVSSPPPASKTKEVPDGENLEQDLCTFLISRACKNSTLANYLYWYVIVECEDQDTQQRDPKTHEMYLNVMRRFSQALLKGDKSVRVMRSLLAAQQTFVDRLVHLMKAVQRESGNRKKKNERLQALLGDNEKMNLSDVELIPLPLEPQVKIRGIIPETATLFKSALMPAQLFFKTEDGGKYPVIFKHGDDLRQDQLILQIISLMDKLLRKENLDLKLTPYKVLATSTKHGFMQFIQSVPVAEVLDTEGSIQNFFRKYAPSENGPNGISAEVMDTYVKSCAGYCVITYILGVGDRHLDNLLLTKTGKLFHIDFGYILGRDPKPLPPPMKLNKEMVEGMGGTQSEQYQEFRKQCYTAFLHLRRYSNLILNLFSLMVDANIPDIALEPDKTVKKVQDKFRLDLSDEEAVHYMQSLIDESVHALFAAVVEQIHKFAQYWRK
Description: Inhibition of VPS34 (unknown origin) by ADP-Glo assay
The nature of series [9]: in vivo. The note with it: CD-1, mouse, po, 10 mg/kg. This is another data set of the same source.
In a further series the target is Cytochrome P450 3A4 (Homo sapiens, UniProt P08684).
Cytochrome P450 3A4, sequence (P08684 whole entry): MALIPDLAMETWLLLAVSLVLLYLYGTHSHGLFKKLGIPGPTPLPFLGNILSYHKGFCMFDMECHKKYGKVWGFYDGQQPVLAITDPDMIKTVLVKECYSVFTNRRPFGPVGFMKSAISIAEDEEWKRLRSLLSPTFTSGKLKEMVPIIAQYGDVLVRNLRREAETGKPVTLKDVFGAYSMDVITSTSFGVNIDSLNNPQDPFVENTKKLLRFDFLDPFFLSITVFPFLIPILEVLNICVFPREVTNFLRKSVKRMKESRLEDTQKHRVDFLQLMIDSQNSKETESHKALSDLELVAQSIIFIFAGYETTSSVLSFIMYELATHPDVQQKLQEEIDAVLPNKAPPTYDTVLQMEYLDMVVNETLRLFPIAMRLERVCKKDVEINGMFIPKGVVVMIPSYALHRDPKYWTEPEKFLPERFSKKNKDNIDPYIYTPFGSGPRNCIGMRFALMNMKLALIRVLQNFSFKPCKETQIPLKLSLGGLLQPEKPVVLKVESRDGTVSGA
A short description of series [10]: in vitro. The note with it: human, CCD-18Co cells.
Description: Cytotoxicity against human CCD-18Co cells assessed as inhibition of cell growth incubated for 7 days by CellTiter-Glo 2.0 assay
Series [11] in a line: in vivo. The note with it: Sprague-Dawley, rat, po, 10 mg/kg. This is another data set of the same source.
For another series, the target named is Cytochrome P450 2D6 (Homo sapiens, UniProt P10635).
Cytochrome P450 2D6, sequence (P10635 whole entry): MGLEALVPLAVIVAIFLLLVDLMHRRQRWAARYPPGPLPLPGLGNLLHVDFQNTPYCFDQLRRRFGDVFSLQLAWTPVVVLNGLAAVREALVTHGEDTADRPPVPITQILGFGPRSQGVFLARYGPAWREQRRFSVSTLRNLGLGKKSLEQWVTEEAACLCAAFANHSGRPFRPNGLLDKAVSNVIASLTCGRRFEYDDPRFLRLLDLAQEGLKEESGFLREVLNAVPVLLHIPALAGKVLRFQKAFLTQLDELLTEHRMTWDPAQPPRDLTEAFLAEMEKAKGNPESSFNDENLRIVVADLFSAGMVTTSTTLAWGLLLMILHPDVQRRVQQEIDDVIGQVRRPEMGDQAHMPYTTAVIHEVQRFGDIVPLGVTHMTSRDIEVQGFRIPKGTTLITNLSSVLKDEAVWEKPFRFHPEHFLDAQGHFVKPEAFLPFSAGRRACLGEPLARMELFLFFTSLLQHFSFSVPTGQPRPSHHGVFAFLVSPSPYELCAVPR
The nature of series [12]: in vivo. Particulars: Sprague-Dawley, rat, iv, 1 mg/kg. The source holds these as a separate data set.
A short description of series [13]: in vivo. The note with it: CD-1, mouse, po, 30 mg/kg. The source holds these as a separate data set.
In another series the test system is LoVo. Put plainly: cells. Particulars: Homo sapiens.
Series [14] is described as follows: physchem. The note with it: Fed State Simulated Intestinal Fluid.
Description: Thermodynamic solubility of the compound in Fed State Simulated Intestinal Fluid
Series [15] can be described thus: in vitro. The note with it: rat, hepatocytes.
Description: Intrinsic clearance in rat hepatocytes
Series [16] in a line: in vivo. The note with it: Sprague-Dawley, rat, plasma, iv, 1 mg/kg.
Series [17] in a line: physchem. The note with it: Simulated Gastric Fluid.
Description: Thermodynamic solubility of the compound in Simulated Gastric Fluid

In brackets after ≈: the same amount, converted by molar mass. Activity calls are given as the source filed them.

Phosphatidylinositol 4,5-bisphosphate 3-kinase catalytic subunit beta isoform, sequence (P42338 whole entry, canonical isoform): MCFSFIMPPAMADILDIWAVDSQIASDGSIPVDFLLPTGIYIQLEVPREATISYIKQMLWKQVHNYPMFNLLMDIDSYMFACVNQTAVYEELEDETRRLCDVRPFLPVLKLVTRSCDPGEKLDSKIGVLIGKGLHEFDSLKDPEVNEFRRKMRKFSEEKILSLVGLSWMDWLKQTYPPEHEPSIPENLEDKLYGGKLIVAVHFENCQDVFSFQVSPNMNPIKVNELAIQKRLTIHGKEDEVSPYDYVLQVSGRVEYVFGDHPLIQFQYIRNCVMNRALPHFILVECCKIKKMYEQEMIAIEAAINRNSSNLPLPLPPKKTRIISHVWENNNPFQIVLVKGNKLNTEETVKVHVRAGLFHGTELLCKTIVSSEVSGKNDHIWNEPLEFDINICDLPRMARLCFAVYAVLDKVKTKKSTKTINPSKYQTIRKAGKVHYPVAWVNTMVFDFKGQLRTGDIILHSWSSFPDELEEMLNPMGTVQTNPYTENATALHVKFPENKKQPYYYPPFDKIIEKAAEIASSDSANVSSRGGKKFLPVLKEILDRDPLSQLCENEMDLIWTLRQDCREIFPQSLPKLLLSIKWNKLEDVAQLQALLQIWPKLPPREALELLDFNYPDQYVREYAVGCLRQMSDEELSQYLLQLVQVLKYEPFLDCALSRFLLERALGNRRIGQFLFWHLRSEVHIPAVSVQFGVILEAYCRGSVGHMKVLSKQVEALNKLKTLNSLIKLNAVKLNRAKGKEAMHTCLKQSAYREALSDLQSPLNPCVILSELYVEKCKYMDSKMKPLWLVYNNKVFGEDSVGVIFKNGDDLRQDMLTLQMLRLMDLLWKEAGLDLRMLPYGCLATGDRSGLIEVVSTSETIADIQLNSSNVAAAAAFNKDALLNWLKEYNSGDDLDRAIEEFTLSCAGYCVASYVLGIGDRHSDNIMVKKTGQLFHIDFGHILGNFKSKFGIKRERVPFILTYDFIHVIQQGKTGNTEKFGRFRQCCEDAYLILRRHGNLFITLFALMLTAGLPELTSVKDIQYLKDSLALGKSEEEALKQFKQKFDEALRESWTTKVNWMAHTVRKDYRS
Description for Cytochrome P450 2B6: Inhibition of CYP2B6 in human liver microsomes by LC-MS/MS analysis
Description for LoVo: Antiproliferative activity against human LoVo cells assessed as inhibition of cell growth incubated for 7 days by CellTiter-Glo 2.0 assay
Description for NCI-H23: Antiproliferative activity against human NCI-H23 cells assessed as inhibition of cell growth incubated for 7 days by CellTiter-Glo 2.0 assay

What is called IC50 is the concentration that gives 50% inhibition. One may read the AUC(0-t) as the area under the concentration-time curve up to a stated or last time point. A high value points to high exposure. The term thermodynamic solubility denotes solubility found after equilibrating the solid with the medium. The term Cmax denotes the highest concentration seen after dosing. What is called EC50 is the concentration giving half of the maximal effect. High values mean weaker potency, low ones greater potency. Broadly, the half-life is the time needed for the level to fall by half in the phase considered. A word on the bioavailability: it is the share of a dose that reaches the circulation, judged against a reference dose that is usually intravenous. A high value points to good availability. A word on the Vd: it is a proportionality between amount in the body and measured concentration, not a real space. Higher therefore signals wide distribution into tissue. What is called CLint scaled is the rate of metabolic loss divided by the concentration. Higher therefore signals faster metabolism. In general, clearance refers to the rate of elimination divided by the concentration. A lower clearance goes with a low capacity for elimination. In the case of `C[C@@H]1COCCN1c1cc(N=[S@@](C)(=O)C2CC2)nc(-c2ccnc(N)c2)n1`, the IC50 in [1] was more than 50 µM; on Cytochrome P450 2B6 it was more than 10 µM; in [2], 29 µM; in [8], more than 50 µM; on Cytochrome P450 3A4, more than 10 µM; against Cytochrome P450 2D6, more than 10 µM. Also, the AUC(0-t) in “in vivo [3]” is 3.78 µM·h; in the series “in vivo [9]” it was 4.25 µM·h; in the series “in vivo [13]” it was 25.3 µM·h. For the same compound, the values for the thermodynamic solubility in “physchem [4]”, in “physchem [14]” and in the series “physchem [17]” were 1500 µg/mL (≈ 3.86 mM), more than 5000 µg/mL and more than 13000 µg/mL, respectively. The concentration in “in vivo [5]” peaked (Cmax) at 16.1 µM. Moreover, the EC50 in the series with NCI-H23 came out at 0.14 µM; with LoVo, 1.15 µM. Also, the half-life in the series “in vivo [6]” was 36 min. The bioavailability in “in vivo [7]” is 77%; in “in vivo [11]”, 58%. Also, the inhibition result in the series filed under Mus musculus is “Active”. The compound further gave an EC50 at 7 days in the series “in vitro [10]” of 6.92 µM. Further, the volume of distribution (Vd) in the series “in vivo [12]” was 3.9 L/kg. This compound also yielded a CLint scaled in the series “in vitro [15]” of 29 mL/min/kg. In “in vivo [16]”, this compound had a clearance of 98 mL/min/kg.
